In patent US9376499B2, “PAR-1 activation by metalloproteinase-1 (MMP-1)” (Tufts Medical Center, Inc., priority 2009, dated 2016):
Non-standard residues stand in square brackets, D forms with d. Residues, ends and D or L forms follow the SMILES beside them. No end group written: not given here. *: point of attachment. 4Abz = Nc1ccc(C(=O)O)cc1; NHOH = ON*

Assays:
platelets [1] = experiment: Clot retraction assay in human platelet-rich plasma, collagen initiated; format: cell-based; settings: 2.5-5 μg/ml collagen (titration 1-20 μg/ml); FN-439 5 μM, RWJ-56110 1 μM, MMP9/13 Inh 10 nM; 90 or 240 min
Description: Platelet rich plasma (PRP) was isolated from human whole blood anti-coagulated with 4% sodium citrate. Clot retraction assays were done in 1 ml volumes containing 800 μl PBS and 200 μl PRP plus 10 μl red blood cells to enhance contrast. Samples were pretreated with FN-439 (5 μM), MMP9/13 Inh (10 nM) or RWJ-56110 (1 μM) for 15 min and clot formation was initiated with 1-20 μg/ml type I fibrillar collagen. Samples were incubated at 37° C. for 90 or 240 min and then photographed with a digital camera. Each photograph in FIG. 6I is representative of three independent experiments.

[2] = Collagen-induced systemic platelet activation (thrombocytopenia) in guinea pigs; format: in vivo, guinea pig; settings: i.v. P1pal-7 3 mg/kg or FN-439 10 mg/kg, 10 min before 200 μg collagen
Description: Animal experiments were performed in accordance with the National Institutes of Health guidelines and approved by the Tufts Medical Center Institutional Animal Care and Use Committee. 2-4 week old Hartley guinea pigs (170-260 g) were anesthetized by an i.p. injection of xylazine (10 mg/kg) plus ketamine (50 mg/kg) and then catheterized via the left jugular vein and injected (200 μL) with either vehicle (20% DMSO/80% water), P1pal-7 or FN-439. For determination of collagen-dependent systemic platelet activation, 10 min after administration of inhibitors, 200 μg collagen in 200 μL of PBS was delivered via the jugular vein. Ten min after collagen injection, blood was collected into sodium citrate (1% v/v final) from the contralateral jugular vein and platelet counts were measured with a Hemavet850. The enzymatic activity of active MMP-1 in supernatants and platelet lysates was determined using DQ collagen I as fluorogenic substrate in the presence or absence of 3 μM FN-439, or 20 μg/ml of control IgG or a MMP-1 blocking Ab (preincubated for 2 h at 37° C.), as indicated.
Intravascular platelet activation was then induced by an intravenous injection of collagen into the guinea pigs. Vehicle, P1pal-7 (3 mg/kg) or FN-439 (10 mg/kg) were delivered i.v. to the internal jugular vein of guinea pigs (n=6) and allowed to circulate for 10 min. […]

MMP-1 [3] = biological target: T1, MMP-1 (Cavia porcellus, UniProt H0V812); experiment: Collagen zymography of arterial clots from FeCl3-injured carotid arteries; format: in vivo, guinea pig
T1 construct: endogenous in cells; host or cells: platelets of Hartley guinea pigs
T1 sequence (H0V812 1-472): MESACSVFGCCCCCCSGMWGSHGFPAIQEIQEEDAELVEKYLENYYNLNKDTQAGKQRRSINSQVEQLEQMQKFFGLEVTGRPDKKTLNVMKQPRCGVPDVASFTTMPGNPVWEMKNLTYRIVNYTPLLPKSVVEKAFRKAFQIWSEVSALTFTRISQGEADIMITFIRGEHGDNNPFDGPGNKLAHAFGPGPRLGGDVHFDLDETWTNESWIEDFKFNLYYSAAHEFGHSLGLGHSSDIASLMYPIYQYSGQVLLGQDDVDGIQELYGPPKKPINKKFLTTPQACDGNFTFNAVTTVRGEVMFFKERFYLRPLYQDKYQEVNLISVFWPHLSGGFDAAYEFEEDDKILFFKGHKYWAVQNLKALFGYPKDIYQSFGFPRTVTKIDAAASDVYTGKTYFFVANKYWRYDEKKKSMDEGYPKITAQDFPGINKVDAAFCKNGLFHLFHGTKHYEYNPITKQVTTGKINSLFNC
Description: MMP-1 activity with the dots was determined by collagent zymography (see FIG. 6H). Platelets were isolated from guinea pigs and stimulated with 20 μg/ml collagen for 15 min and platelet supernatants and pellets, or whole resting platelets (control), prepared as described Above. Samples were resolved on a 8% type I collagen/acrylamide zymography gel and collagenase zymogram was developed as described by (Gogly et al., 1998) or immunoblotted with MMP1-Ab, AB806. Arterial dots were also removed from the Fe—Cl irnjured carotid arteries from animals (n=5) treated with FN-439 (FN439 clot) or vehicle (veh dot) as in 6F and 6G and dots were dissolved in lysis buffer and passed 5× through a 21-gauge needle. The lysates were centrifuged and supernatents resolved on the zymography gel. The two lanes on the left side of the western blot have 20 ng of proMMP-1 or 20 ng APMA-activated MMP-1, and the right hand lane in the zymogram has 0.5 μg of APMA-activated human MMP-1.

MMP-1 [4] = biological target: T2, MMP-1 (Homo sapiens, UniProt P03956); settings: cited from earlier work
T2 sequence (P03956 100-469): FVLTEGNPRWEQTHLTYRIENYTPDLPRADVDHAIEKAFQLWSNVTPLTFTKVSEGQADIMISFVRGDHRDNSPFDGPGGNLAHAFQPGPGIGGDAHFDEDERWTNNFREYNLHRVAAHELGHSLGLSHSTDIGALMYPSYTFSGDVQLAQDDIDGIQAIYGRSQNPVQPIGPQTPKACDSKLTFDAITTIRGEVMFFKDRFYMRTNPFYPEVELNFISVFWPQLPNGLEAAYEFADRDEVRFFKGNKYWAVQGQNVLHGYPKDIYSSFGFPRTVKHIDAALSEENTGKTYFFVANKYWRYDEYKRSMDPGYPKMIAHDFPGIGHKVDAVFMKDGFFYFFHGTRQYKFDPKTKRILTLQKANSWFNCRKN

MMP-3 = MMP-3 (Homo sapiens, UniProt P08254); settings: cited from earlier work
MMP-3, sequence (P08254 100-477, species assumed): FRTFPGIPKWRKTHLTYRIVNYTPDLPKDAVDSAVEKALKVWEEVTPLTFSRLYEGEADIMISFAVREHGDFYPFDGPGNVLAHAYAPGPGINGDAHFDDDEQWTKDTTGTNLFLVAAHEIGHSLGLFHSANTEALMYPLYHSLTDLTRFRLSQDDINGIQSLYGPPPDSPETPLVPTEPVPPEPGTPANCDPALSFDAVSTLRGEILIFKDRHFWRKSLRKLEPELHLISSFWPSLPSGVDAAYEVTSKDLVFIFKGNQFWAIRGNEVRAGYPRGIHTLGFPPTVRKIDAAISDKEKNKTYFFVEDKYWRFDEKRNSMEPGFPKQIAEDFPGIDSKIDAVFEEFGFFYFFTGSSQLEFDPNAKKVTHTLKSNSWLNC

MMP-8 = MMP-8 (Homo sapiens, UniProt P22894); settings: cited from earlier work
MMP-8, sequence (P22894 101-467, species assumed): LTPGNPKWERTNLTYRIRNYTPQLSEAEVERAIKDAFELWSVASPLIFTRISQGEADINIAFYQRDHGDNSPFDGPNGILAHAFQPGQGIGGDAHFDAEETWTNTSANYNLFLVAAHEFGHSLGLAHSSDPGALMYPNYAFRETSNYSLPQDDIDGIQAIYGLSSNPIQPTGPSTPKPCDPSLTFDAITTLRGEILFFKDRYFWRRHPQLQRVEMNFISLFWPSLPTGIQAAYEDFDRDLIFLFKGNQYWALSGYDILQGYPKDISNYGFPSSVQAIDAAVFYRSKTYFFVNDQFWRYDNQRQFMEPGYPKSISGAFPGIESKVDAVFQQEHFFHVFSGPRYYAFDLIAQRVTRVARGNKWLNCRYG

MMP-9 = MMP-9 (Homo sapiens, UniProt P14780); settings: cited from earlier work
MMP-9, sequence (P14780 94-707, species assumed): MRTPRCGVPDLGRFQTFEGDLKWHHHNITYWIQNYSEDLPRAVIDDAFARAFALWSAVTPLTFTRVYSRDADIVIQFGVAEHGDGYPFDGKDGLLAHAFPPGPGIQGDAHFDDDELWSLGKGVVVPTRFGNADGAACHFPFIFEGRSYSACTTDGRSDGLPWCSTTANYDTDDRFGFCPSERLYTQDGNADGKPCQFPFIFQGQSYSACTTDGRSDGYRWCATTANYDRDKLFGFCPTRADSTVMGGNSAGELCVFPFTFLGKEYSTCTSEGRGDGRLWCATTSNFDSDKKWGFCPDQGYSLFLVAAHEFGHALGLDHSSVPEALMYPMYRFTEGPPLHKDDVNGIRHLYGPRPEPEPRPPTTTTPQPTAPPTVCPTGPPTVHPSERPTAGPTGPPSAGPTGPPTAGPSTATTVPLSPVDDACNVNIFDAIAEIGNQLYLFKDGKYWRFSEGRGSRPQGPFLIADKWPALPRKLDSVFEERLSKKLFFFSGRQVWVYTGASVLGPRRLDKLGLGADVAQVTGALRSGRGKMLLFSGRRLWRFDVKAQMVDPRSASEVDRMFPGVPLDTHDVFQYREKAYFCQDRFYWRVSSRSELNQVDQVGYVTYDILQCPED

platelets [5] = experiment: Collagen-dependent aggregation of gel-filtered human platelets (light transmittance); format: cell-based; settings: 5 μg/ml collagen; 1,10-PA 100 μM, MMP-200 200 nM, FN-439 3 μM, RWJ-56110 1 μM, PAR1 Ab 75 μg/ml, pepducins 3 μM, PPACK 200 μM, hirudin 1 U/ml
PAR1 = experiment: P1pal-7 ammonium acetate salt: IC50 and PAR1 specificity (test not described); settings: ammonium acetate salt of P1pal-7 in 100% water

Compound | inhibition of clot formation and retraction (platelets [1]) | protection against collagen-induced thrombocytopenia / intravascular platelet activation [2] | active MMP-1 in arterial thrombi of treated animals (MMP-1 [3]) | IC50 (MMP-1 [4]) [nM] | IC50 (MMP-3) [µM] | IC50 (MMP-8) [nM] | IC50 (MMP-9) [µM] | inhibition (loss) of collagen-induced platelet aggregation (platelets [5]) | specificity for PAR1 (PAR1)
CC(C)C[C@@H](NC(=O)[C@@H]1CCCN1C(=O)CNC(=O)c1ccc(N)cc1)C(=O)N[C@H](C)C(=O)NO [FN-439] (H-[4Abz]GP[dL][dA]-{NHOH}) | completely inhibited | significant protection | did not contain active MMP-1 | 1000 | 150 | 1000 | 30 | – | –
P1pal-7: PAR1 i3 loop pepducin lipopeptide, KKSRALF (SEQ ID NO. 2), palmitate (also: palmitate, site not given here) | – | almost completely protected | – | – | – | – | – | identical levels of inhibition as blocking MMP-1 | retains specificity for PAR1
